By IC50 is commonly meant the concentration that gives 50% inhibition. As usually defined, the Ki is a measure of affinity in units of concentration, obtained from inhibition or displacement.

Consider 8 molecules from ChEMBL document CHEMBL1909046, “DrugMatrix in vitro pharmacology data”.

Molecules are shown by their SMILES.

D(3) dopamine receptor, sequence (P35462 whole entry): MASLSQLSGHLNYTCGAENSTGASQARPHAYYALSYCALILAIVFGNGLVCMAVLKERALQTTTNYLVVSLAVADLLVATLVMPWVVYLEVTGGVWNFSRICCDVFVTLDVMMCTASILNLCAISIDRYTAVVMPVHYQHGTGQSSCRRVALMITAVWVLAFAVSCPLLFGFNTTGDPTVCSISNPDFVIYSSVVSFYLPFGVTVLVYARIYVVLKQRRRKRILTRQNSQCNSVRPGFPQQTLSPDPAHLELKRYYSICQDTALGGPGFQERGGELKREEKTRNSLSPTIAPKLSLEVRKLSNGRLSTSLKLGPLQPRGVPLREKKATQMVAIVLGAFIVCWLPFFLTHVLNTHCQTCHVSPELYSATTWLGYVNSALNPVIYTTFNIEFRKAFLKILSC

The target in the first data set is Cannabinoid receptor 1 (Homo sapiens, UniProt P21554). It is filed as cell membranes, Chem-1, Membrane. Conditions: chem-1. Further: in other assays of this panel Not Active means under 50% inhibition at 10 µM.
Cannabinoid receptor 1, sequence (P21554 whole entry): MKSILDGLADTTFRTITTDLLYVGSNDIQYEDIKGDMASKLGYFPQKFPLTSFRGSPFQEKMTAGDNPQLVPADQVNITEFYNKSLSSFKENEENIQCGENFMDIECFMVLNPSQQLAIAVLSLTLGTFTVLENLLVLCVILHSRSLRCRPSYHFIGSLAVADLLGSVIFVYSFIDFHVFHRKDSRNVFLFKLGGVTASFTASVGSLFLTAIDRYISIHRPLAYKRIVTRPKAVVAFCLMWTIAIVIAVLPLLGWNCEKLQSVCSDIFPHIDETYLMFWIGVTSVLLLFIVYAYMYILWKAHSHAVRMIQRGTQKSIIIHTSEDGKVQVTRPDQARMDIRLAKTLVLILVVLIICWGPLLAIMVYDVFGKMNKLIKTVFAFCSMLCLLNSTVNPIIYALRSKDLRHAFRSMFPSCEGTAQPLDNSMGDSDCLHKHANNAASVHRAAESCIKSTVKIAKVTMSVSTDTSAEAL
Turning to `Nc1ccn([C@@H]2CS[C@H](CO)O2)c(=O)n1` [LAMIVUDINE], the IC50 entry is “Not Active”.
With `O=S(=O)([O-])CCS.[Na+]` [MESNA], the IC50 entry is given as “Not Active”.
In the case of `CC(=O)Nc1cccc(O)c1` [METACETAMOL], the IC50 result is given as “Not Active”.
With `Cc1ncc([N+](=O)[O-])n1CCO` [METRONIDAZOLE], the IC50 entry is reported as “Not Active”.
Turning to `CC(C)(C(=O)c1cccnc1)c1cccnc1` [METYRAPONE], the IC50 entry was “Not Active”.
Same read-out and setting: under `Oc1ccc(OCc2ccccc2)cc1` [MONOBENZONE] stands “Not Active”.
The same measure, in the same setting: the entry for `CC(C)(Oc1ccc(C2CCCc3ccccc32)cc1)C(=O)O` (stereo unspecified) [NAFENOPIN] is “Not Active”.

Still in this data set, the particulars now being: read-out: IC50.
For `C#C[C@]1(O)CC[C@H]2[C@@H]3CCc4cc(OC)ccc4[C@H]3CC[C@@]21C` [MESTRANOL], the concentration for half-maximal inhibition (IC50) worked out at 28.5 µM.

Staying with this data set, now noted: read-out: Ki.
For `C#C[C@]1(O)CC[C@H]2[C@@H]3CCc4cc(OC)ccc4[C@H]3CC[C@@]21C` [MESTRANOL], the Ki was determined as 22.5 µM.

Another data set addresses T1, Cholecystokinin receptor type A (Homo sapiens, UniProt P32238).
T1 sequence (P32238 whole entry): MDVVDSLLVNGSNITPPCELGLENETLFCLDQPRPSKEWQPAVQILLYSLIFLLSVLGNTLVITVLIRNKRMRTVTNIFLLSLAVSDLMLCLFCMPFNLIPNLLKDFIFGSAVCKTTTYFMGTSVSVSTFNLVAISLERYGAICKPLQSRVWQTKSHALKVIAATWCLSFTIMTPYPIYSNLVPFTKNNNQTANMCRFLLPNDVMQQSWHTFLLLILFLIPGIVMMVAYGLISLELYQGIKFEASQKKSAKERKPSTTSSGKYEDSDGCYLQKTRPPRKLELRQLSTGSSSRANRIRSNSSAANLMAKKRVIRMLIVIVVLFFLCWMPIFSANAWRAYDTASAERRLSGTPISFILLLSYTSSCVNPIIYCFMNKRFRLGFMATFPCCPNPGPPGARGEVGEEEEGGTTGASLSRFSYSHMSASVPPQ
It is filed as cell membranes, Membrane. Conditions: 1321-n1.
Turning to `Nc1ccn([C@@H]2CS[C@H](CO)O2)c(=O)n1` [LAMIVUDINE], the IC50 entry is given as “Not Active”.
The same measure, in the same setting: under `O=S(=O)([O-])CCS.[Na+]` [MESNA] stands “Not Active”; under `C#C[C@]1(O)CC[C@H]2[C@@H]3CCc4cc(OC)ccc4[C@H]3CC[C@@]21C` [MESTRANOL], “Not Active”; under `CC(=O)Nc1cccc(O)c1` [METACETAMOL], “Not Active”.
On to `Cc1ncc([N+](=O)[O-])n1CCO` [METRONIDAZOLE], for which the IC50 result was “Not Active”.
On the same count and under the same terms, under `CC(C)(C(=O)c1cccnc1)c1cccnc1` [METYRAPONE] stands “Not Active”; under `Oc1ccc(OCc2ccccc2)cc1` [MONOBENZONE], “Not Active”; under `CC(C)(Oc1ccc(C2CCCc3ccccc32)cc1)C(=O)O` (stereo unspecified) [NAFENOPIN], “Not Active”.

A further data set has as its target D(3) dopamine receptor (Homo sapiens, UniProt P35462). Description: DRUGMATRIX: Dopamine D3 radioligand binding (ligand: [3H] Spiperone). Type of data set: cell membranes, CHO, Membrane. To be noted: cho.
On to `Nc1ccn([C@@H]2CS[C@H](CO)O2)c(=O)n1` [LAMIVUDINE], for which the IC50 entry was “Not Active”.
On to `O=S(=O)([O-])CCS.[Na+]` [MESNA], for which the IC50 result is “Not Active”.
For the molecule `C#C[C@]1(O)CC[C@H]2[C@@H]3CCc4cc(OC)ccc4[C@H]3CC[C@@]21C` [MESTRANOL], the IC50 entry is recorded as “Not Active”.
Take `CC(=O)Nc1cccc(O)c1` [METACETAMOL]: the concentration for half-maximal inhibition (IC50) result is “Not Active”.
On the same count and under the same terms, the entry for `Cc1ncc([N+](=O)[O-])n1CCO` [METRONIDAZOLE] is “Not Active”; for `CC(C)(C(=O)c1cccnc1)c1cccnc1` [METYRAPONE] it is “Not Active”.
For `Oc1ccc(OCc2ccccc2)cc1` [MONOBENZONE], the half-maximal inhibitory concentration (IC50) result is listed as “Not Active”.
Still for that read-out and setting: under `CC(C)(Oc1ccc(C2CCCc3ccccc32)cc1)C(=O)O` (stereo unspecified) [NAFENOPIN] stands “Not Active”.

Test system in another data set: not listed separately
The data set is described as follows: DRUGMATRIX: Phorbol Ester radioligand binding (ligand: [3H] PDBu). It is filed as cell membranes, Mus musculus, ICR, Brain, Membrane. To be noted: Not Active = under 50% inhibition at 10 µM.
As to `Nc1ccn([C@@H]2CS[C@H](CO)O2)c(=O)n1` [LAMIVUDINE], the half-maximal inhibitory concentration (IC50) result is “Not Active” and the Ki entry was “Not Active”.
Take `O=S(=O)([O-])CCS.[Na+]` [MESNA]: the IC50 result was “Not Active” and the Ki result was “Not Active”.
Take `C#C[C@]1(O)CC[C@H]2[C@@H]3CCc4cc(OC)ccc4[C@H]3CC[C@@]21C` [MESTRANOL]: the IC50 result was “Not Active” and the Ki entry is recorded as “Not Active”.
`CC(=O)Nc1cccc(O)c1` [METACETAMOL]: the 50% inhibitory concentration (IC50) entry is listed as “Not Active” and the Ki entry is given as “Not Active”.
As to `Cc1ncc([N+](=O)[O-])n1CCO` [METRONIDAZOLE], the IC50 entry is listed as “Not Active” and the inhibitory constant (Ki) result was “Not Active”.
Take `CC(C)(C(=O)c1cccnc1)c1cccnc1` [METYRAPONE]: the IC50 result was “Not Active” and the Ki entry was “Not Active”.
For the molecule `Oc1ccc(OCc2ccccc2)cc1` [MONOBENZONE], the IC50 entry was “Not Active” and the Ki result is reported as “Not Active”.
As for `CC(C)(Oc1ccc(C2CCCc3ccccc32)cc1)C(=O)O` (stereo unspecified) [NAFENOPIN], the IC50 result is “Not Active” and the Ki entry was “Not Active”.

Test system in the next data set: not listed separately
Description: DRUGMATRIX: Phosphodiesterase PDE4 enzyme inhibition (substrate: [3H]cAMP + cAMP). Conditions: u-937; Not Active = under 50% inhibition at 10 µM.
As to `Nc1ccn([C@@H]2CS[C@H](CO)O2)c(=O)n1` [LAMIVUDINE], the IC50 result is “Not Active” and the Ki entry is recorded as “Not Active”.
Consider `O=S(=O)([O-])CCS.[Na+]` [MESNA], for which the IC50 entry is “Not Active” and the Ki entry is on record as “Not Active”.
`C#C[C@]1(O)CC[C@H]2[C@@H]3CCc4cc(OC)ccc4[C@H]3CC[C@@]21C` [MESTRANOL]: the half-inhibitory concentration (IC50) result was “Not Active” and the Ki result is recorded as “Not Active”.
Regarding `CC(=O)Nc1cccc(O)c1` [METACETAMOL], the IC50 entry was “Not Active” and the Ki entry is “Not Active”.
For `Cc1ncc([N+](=O)[O-])n1CCO` [METRONIDAZOLE], the IC50 result is recorded as “Not Active” and the Ki result was “Not Active”.
Consider `CC(C)(C(=O)c1cccnc1)c1cccnc1` [METYRAPONE], for which the IC50 entry is given as “Not Active” and the Ki entry was “Not Active”.
For the molecule `Oc1ccc(OCc2ccccc2)cc1` [MONOBENZONE], the 50% inhibitory concentration (IC50) result is reported as “Not Active” and the Ki result is reported as “Not Active”.
In the case of `CC(C)(Oc1ccc(C2CCCc3ccccc32)cc1)C(=O)O` (stereo unspecified) [NAFENOPIN], the IC50 result was “Not Active” and the Ki result was “Not Active”.

A further data set concerns the target T2, Caspase-1 (Homo sapiens, UniProt P29466).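 Further: Caspase-1 enzyme inhibition assay with a peptide substrate; in other assays of this panel Not Active means under 50% inhibition at 10 µM.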
T2 sequence (P29466 whole entry): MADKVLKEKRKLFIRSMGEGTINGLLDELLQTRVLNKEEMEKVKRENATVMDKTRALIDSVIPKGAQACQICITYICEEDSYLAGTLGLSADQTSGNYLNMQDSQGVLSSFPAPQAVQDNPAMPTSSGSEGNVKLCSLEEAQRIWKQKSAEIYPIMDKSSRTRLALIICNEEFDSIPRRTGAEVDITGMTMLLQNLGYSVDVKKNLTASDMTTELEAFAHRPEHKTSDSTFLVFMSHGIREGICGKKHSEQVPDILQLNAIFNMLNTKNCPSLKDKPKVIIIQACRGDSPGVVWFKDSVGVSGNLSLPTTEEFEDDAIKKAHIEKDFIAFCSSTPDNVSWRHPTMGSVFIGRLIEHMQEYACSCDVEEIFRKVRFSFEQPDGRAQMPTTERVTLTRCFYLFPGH
More on the design: species or system Escherichia coli.
Settings: not given
`Nc1ccn([C@@H]2CS[C@H](CO)O2)c(=O)n1` [LAMIVUDINE]: the 50% inhibitory concentration (IC50) result is “Not Active”.
Consider `O=S(=O)([O-])CCS.[Na+]` [MESNA], for which the IC50 result is “Not Active”.
Still for that read-out and setting: the entry for `C#C[C@]1(O)CC[C@H]2[C@@H]3CCc4cc(OC)ccc4[C@H]3CC[C@@]21C` [MESTRANOL] is “Not Active”; for `CC(=O)Nc1cccc(O)c1` [METACETAMOL] it is “Not Active”; for `Cc1ncc([N+](=O)[O-])n1CCO` [METRONIDAZOLE] it is “Not Active”.
Same read-out and setting: the entry for `CC(C)(C(=O)c1cccnc1)c1cccnc1` [METYRAPONE] is “Not Active”; for `Oc1ccc(OCc2ccccc2)cc1` [MONOBENZONE] it is “Not Active”.
On the same count and under the same terms, the entry for `CC(C)(Oc1ccc(C2CCCc3ccccc32)cc1)C(=O)O` (stereo unspecified) [NAFENOPIN] is “Not Active”.

A further data set concerns the target T3, Cytochrome P450 2A6 (Homo sapiens, UniProt P11509). Further: in other assays of this panel Not Active means under 50% inhibition at 10 µM.
T3 sequence (P11509 whole entry): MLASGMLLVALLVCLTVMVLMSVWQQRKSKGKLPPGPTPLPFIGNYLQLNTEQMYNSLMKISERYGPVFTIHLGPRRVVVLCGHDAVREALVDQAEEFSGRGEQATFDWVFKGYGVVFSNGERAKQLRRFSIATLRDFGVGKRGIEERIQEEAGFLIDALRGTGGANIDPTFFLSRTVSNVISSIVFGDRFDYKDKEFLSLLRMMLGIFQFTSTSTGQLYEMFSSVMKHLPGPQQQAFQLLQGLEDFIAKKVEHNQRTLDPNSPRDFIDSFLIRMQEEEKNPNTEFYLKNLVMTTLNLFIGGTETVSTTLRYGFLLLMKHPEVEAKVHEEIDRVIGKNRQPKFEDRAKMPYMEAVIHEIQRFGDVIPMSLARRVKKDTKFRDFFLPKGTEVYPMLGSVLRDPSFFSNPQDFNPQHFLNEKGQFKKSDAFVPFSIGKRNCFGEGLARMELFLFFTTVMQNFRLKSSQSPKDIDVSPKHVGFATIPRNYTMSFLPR
To be noted: bti-tn-5b1-4.
As for `Nc1ccn([C@@H]2CS[C@H](CO)O2)c(=O)n1` [LAMIVUDINE], the IC50 entry is listed as “Not Active” and the Ki entry is given as “Not Active”.
On to `O=S(=O)([O-])CCS.[Na+]` [MESNA], for which the IC50 entry is listed as “Not Active” and the Ki result is given as “Not Active”.
For the molecule `C#C[C@]1(O)CC[C@H]2[C@@H]3CCc4cc(OC)ccc4[C@H]3CC[C@@]21C` [MESTRANOL], the IC50 result was “Not Active” and the inhibition constant (Ki) entry is listed as “Not Active”.
As to `CC(=O)Nc1cccc(O)c1` [METACETAMOL], the IC50 result is given as “Not Active” and the Ki result is listed as “Not Active”.
`Cc1ncc([N+](=O)[O-])n1CCO` [METRONIDAZOLE]: the IC50 entry is “Not Active” and the Ki result is recorded as “Not Active”.
On to `CC(C)(C(=O)c1cccnc1)c1cccnc1` [METYRAPONE], for which the IC50 result is given as “Not Active” and the Ki result is “Not Active”.
In the case of `Oc1ccc(OCc2ccccc2)cc1` [MONOBENZONE], the half-maximal inhibitory concentration (IC50) result is “Not Active” and the Ki result is on record as “Not Active”.
With `CC(C)(Oc1ccc(C2CCCc3ccccc32)cc1)C(=O)O` (stereo unspecified) [NAFENOPIN], the IC50 entry was “Not Active” and the Ki result is “Not Active”.
